Series [1] is described as follows: Cytotoxicity against human Chang liver cells assessed as reduction in cell viability after 24 hrs by DAPI/propidium iodide staining based assay.
Series [2] concerns M-HeLa. The series is described as follows: Antiproliferative activity against human M-HeLa cells assessed as reduction in cell viability after 24 hrs by DAPI/propidium iodide staining based assay. In kind it is functional.
The test system of another series is MCF7. Briefly: Antiproliferative activity against human MCF7cells assessed as reduction in cell viability after 24 hrs by DAPI/propidium iodide staining based assay. In kind it is functional. To be noted: MCF7, 24 h.
Series [3] can be described thus: Hemolytic activity in human Erythrocytes at 50 +/- 0.8 uM relative to control. In kind it is ADME, cell-based, Erythrocyte. As to conditions: read-out: Activity.
A short description of series [4]: Hemolytic activity in human Erythrocytes at 10 +/- 0.8 uM relative to control. In kind it is ADME, cell-based, Erythrocyte. As to conditions: read-out: Activity.
The test system of series [5] is M-HeLa. Briefly: Induction of mitochondrial membrane potential loss in human M-HeLa cells assessed as collapsed mitochondrial membrane potential at 25 uM after 24 hrs by Jc-10 dye based flow cytometric analysis (reference value: 22.17%). The format is functional.
In series [6] the test system is M-HeLa. The series is described as follows: Induction of mitochondrial membrane potential loss in human M-HeLa cells assessed as intact mitochondrial membrane potential at 25 uM after 24 hrs by Jc-10 dye based flow cytometric analysis (reference value: 77.48%). In kind it is functional.
For series [7], the system named is M-HeLa. Briefly: Induction of mitochondrial membrane potential loss in human M-HeLa cells assessed as collapsed mitochondrial membrane potential at 10 uM after 24 hrs by Jc-10 dye based flow cytometric analysis (reference value: 22.17%). In kind it is functional.
Series [8] has as its system M-HeLa. The series is described as follows: Induction of mitochondrial membrane potential loss in human M-HeLa cells assessed as intact mitochondrial membrane potential at 10 uM after 24 hrs by Jc-10 dye based flow cytometric analysis (reference value: 77.48%). In kind it is functional.
The test system of series [9] is M-HeLa. Briefly: Induction of apoptosis in human M-HeLa cells assessed as necrotic cells at 25 uM after 24 hrs by annexin V-FITC/PIstaining based flow cytometric analysis (reference value: […]). In kind it is functional.
Series [10] has as its system M-HeLa. Briefly: Induction of apoptosis in human M-HeLa cells assessed as late apoptotic cells at 25 uM after 24 hrs by annexin V-FITC/PIstaining based flow cytometric analysis (reference value: 0.62%). In kind it is functional.
Series [11] relates to M-HeLa. Briefly: Induction of apoptosis in human M-HeLa cells assessed as early apoptotic cells at 25 uM after 24 hrs by annexin V-FITC/PIstaining based flow cytometric analysis (reference value: 1.5%). The format is functional.
The test system of series [12] is M-HeLa. Briefly: Induction of apoptosis in human M-HeLa cells assessed as viable cells at 25 uM after 24 hrs by annexin V-FITC/PIstaining based flow cytometric analysis (reference value: 93.33%). The format is functional. To be noted: read-out: Activity.
In series [13] the test system is M-HeLa. Briefly: Induction of apoptosis in human M-HeLa cells assessed as necrotic cells at 10 uM after 24 hrs by annexin V-FITC/PIstaining based flow cytometric analysis (reference value: […]). In kind it is functional.
Series [14] relates to M-HeLa. The series is described as follows: Induction of apoptosis in human M-HeLa cells assessed as late apoptotic cells at 10 uM after 24 hrs by annexin V-FITC/PIstaining based flow cytometric analysis (reference value: 0.62%). In kind it is functional.
The subject of series [15] is M-HeLa. The series is described as follows: Induction of apoptosis in human M-HeLa cells assessed as early apoptotic cells at 10 uM after 24 hrs by annexin V-FITC/PIstaining based flow cytometric analysis (reference value: 1.5%). The format is functional.
Series [16] has as its system M-HeLa. The series is described as follows: Induction of apoptosis in human M-HeLa cells assessed as viable cells at 10 uM after 24 hrs by annexin V-FITC/PIstaining based flow cytometric analysis (reference value: 93.33%). In kind it is functional. As to conditions: read-out: Activity.
Series [17] can be described thus: Hemolytic activity in human Erythrocytes at 100 +/- 7.8 uM relative to control. The format is ADME, cell-based, Erythrocyte. To be noted: read-out: Activity.

Results on 17 compounds are retold here after ChEMBL document CHEMBL4373667, “Synthesis and anti-cancer activities of glycosides and glycoconjugates of diterpenoid isosteviol” (Medchemcomm, 2019).

The structures appear in SMILES notation. Some results are limits rather than exact numbers.

In the case of `CC(=O)OC[C@H]1O[C@@H](OC(=O)[C@]2(C)CCC[C@@]3(C)[C@@H]4CC[C@@]5(C)C[C@]4(CC[C@@H]32)CC5=O)[C@H](OC(C)=O)[C@@H](OC(C)=O)[C@@H]1OC(C)=O`, the IC50 (in series [1]; in the series on M-HeLa [2]; with MCF7) was over 100 µM each time.
`CC(=O)N[C@H]1[C@H](OC(=O)[C@]2(C)CCC[C@@]3(C)[C@@H]4CC[C@@]5(C)C[C@]4(CC[C@@H]32)CC5=O)O[C@H](COC(C)=O)[C@@H](OC(C)=O)[C@@H]1OC(C)=O`: the IC50 in [1] turned out to be 86 µM; with M-HeLa [2], 18 µM; in the series with MCF7, 36 µM.
The corresponding values for `COC(=O)[C@H]1O[C@@H](OC(=O)[C@]2(C)CCC[C@@]3(C)[C@@H]4CC[C@@]5(C)C[C@]4(CC[C@@H]32)CC5=O)[C@H](OC(C)=O)[C@@H](OC(C)=O)[C@@H]1OC(C)=O` are over 100 µM, 26 µM and 65 µM.
The like results for `CC(=O)N[C@H]1[C@H](OC(=O)CCCCCOC(=O)[C@]2(C)CCC[C@@]3(C)[C@@H]4CC[C@@]5(C)C[C@]4(CC[C@@H]32)CC5=O)O[C@H](COC(C)=O)[C@@H](OC(C)=O)[C@@H]1OC(C)=O` were, in that order, 51.2 µM, 46 µM and over 100 µM.
Turning to `C[C@@]12CC[C@@H]3[C@@](CC[C@H]4[C@@]3(C)CCC[C@@]4(C)C(=O)O[C@@H]3O[C@H](CO)[C@H](O)[C@H](O)[C@H]3O)(CC1=O)C2`, the IC50 in series [1] was 58 µM; in the series on M-HeLa [2] it was 52 µM; in the series with MCF7, 29 µM.
The like results for `CC(=O)OC[C@H]1O[C@@H](OC(=O)CCCCCCCCCOC(=O)[C@]2(C)CCC[C@@]3(C)[C@@H]4CC[C@@]5(C)C[C@]4(CC[C@@H]32)CC5=O)[C@H](OC(C)=O)[C@@H](OC(C)=O)[C@H]1OC(C)=O` were, in that order, over 100 µM, 27 µM and 33.2 µM.
`C[C@@]12CC[C@@H]3[C@@](CC[C@H]4[C@@]3(C)CCC[C@@]4(C)C(=O)O[C@H]3O[C@H](CO)[C@@H](O)[C@H](O)[C@@H]3O)(CC1=O)C2`: the IC50 (in series [1]; with M-HeLa [2]; in the series on MCF7) was over 100 µM throughout.
`CC(=O)OC[C@H]1O[C@H](OC(=O)CCCCCOC(=O)[C@]2(C)CCC[C@@]3(C)[C@@H]4CC[C@@]5(C)C[C@]4(CC[C@@H]32)CC5=O)[C@@H](OC(C)=O)[C@@H](OC(C)=O)[C@@H]1OC(C)=O`: the hemolysis at 50 uM in [3] came to 1.7%. The hemolysis at 10 uM in series [4] amounted to 0%. For the same compound, the Activity in the series with M-HeLa [5] is 89.29%; in the series with M-HeLa [6], 10.64%; in the series on M-HeLa [7], 90.91%; in the series on M-HeLa [8] it was 8.98%; in the series with M-HeLa [9] it was 0.05%; in the series with M-HeLa [10], 5.02%. Also, the Activity with M-HeLa [11] stood at 10.59%; with M-HeLa [13] it was 0.22%; with M-HeLa [14] it was 5.59%; in the series with M-HeLa [15], 7.57%. In the series on M-HeLa [12], the viability at 25 µM amounted to 84.3%. For the same compound, the viability at 10 µM in the series with M-HeLa [16] was determined as 86.6%. For the same compound, the figures for the IC50 (in series [1]; with M-HeLa [2]; with MCF7) were over 100 µM, 11 µM and 63.2 µM, respectively. The hemolysis at 100 uM in series [17] stood at 5.5%.
For `CC(=O)N[C@H]1[C@H](OC(=O)[C@]2(C)CCC[C@@]3(C)[C@@H]4CC[C@@]5(C)C[C@]4(CC[C@@H]32)CC5=O)O[C@H](CO)[C@@H](O)[C@@H]1O`, the half-inhibitory concentration (IC50) (in series [1]; in the series on M-HeLa [2]; in the series with MCF7) was over 100 µM each time.
On to `C[C@@]12CC[C@@H]3[C@@](CC[C@H]4[C@@]3(C)CCC[C@@]4(C)C(=O)O[C@@H]3O[C@H](C(=O)NN)[C@@H](O)[C@H](O)[C@H]3O)(C/C1=N\N)C2`, for which the IC50 (in [1]; with M-HeLa [2]; in the series on MCF7) was over 100 µM throughout.
Consider `CC(=O)OC[C@H]1O[C@@H](OC(=O)[C@]2(C)CCC[C@@]3(C)[C@@H]4CC[C@@]5(C)C[C@]4(CC[C@@H]32)CC5=O)[C@H](OC(C)=O)[C@@H](OC(C)=O)[C@H]1OC(C)=O`, for which the IC50 (in series [1]; in the series with M-HeLa [2]; in the series on MCF7) was over 100 µM throughout.
On to `CC(=O)OC[C@H]1O[C@@H](OC(=O)CCCCCOC(=O)[C@]2(C)CCC[C@@]3(C)[C@@H]4CC[C@@]5(C)C[C@]4(CC[C@@H]32)CC5=O)[C@H](OC(C)=O)[C@@H](OC(C)=O)[C@H]1OC(C)=O`, for which the hemolysis at 50 uM in series [3] was found to be 0%. Also, the hemolysis at 10 uM in series [4] was 0%. The Activity with M-HeLa [5] turned out to be 88.38%; in the series on M-HeLa [6], 11.53%; in the series with M-HeLa [7], 44.17%; in the series with M-HeLa [8], 55.78%; with M-HeLa [9], 8.9%; in the series with M-HeLa [10], 13.98%. For the same compound, the Activity in the series with M-HeLa [11] worked out at 39.77%; with M-HeLa [13], 5.49%; in the series on M-HeLa [14], 7.61%; in the series on M-HeLa [15], 34.78%. For the same compound, the viability at 25 µM in the series with M-HeLa [12] is 37.3%. Besides, the viability at 10 µM in the series with M-HeLa [16] turned out to be 52.1%. For the same compound, the IC50 in [1] was over 100 µM; in the series on M-HeLa [2], 10 µM; with MCF7, 32.1 µM. Besides, the hemolysis at 100 uM in [17] is 0%.
In the case of `CC(=O)OC[C@H]1O[C@H](OC(=O)[C@]2(C)CCC[C@@]3(C)[C@@H]4CC[C@@]5(C)C[C@]4(CC[C@@H]32)CC5=O)[C@@H](OC(C)=O)[C@@H](OC(C)=O)[C@@H]1OC(C)=O`, the hemolysis at 50 uM in [3] came out at 0%. Also, the hemolysis at 10 uM in series [4] worked out at 0%. Also, the Activity with M-HeLa [5] is given as 92.26%; in the series on M-HeLa [6], 7.74%; with M-HeLa [7] it was 70.85%; in the series with M-HeLa [8], 28.67%; with M-HeLa [9], 0.28%; in the series with M-HeLa [10], 12.97%. Besides, the Activity with M-HeLa [11] is 13.12%; in the series on M-HeLa [13] it was 3.98%; with M-HeLa [14], 7.25%; with M-HeLa [15], 3.02%. Moreover, the viability at 25 µM in the series with M-HeLa [12] was 73.7%. The viability at 10 µM in the series with M-HeLa [16] was found to be 85.8%. Besides, the half-maximal inhibitory concentration (IC50) in series [1] was over 100 µM; in the series on M-HeLa [2] it was 15.1 µM; with MCF7, 29.3 µM. Also, the hemolysis at 100 uM in series [17] came out at 0%.
With `CC(=O)OC[C@H]1O[C@H](OC(=O)CCCCCCCCCOC(=O)[C@]2(C)CCC[C@@]3(C)[C@@H]4CC[C@@]5(C)C[C@]4(CC[C@@H]32)CC5=O)[C@@H](OC(C)=O)[C@@H](OC(C)=O)[C@@H]1OC(C)=O`, the half-maximal inhibitory concentration (IC50) in [1] is over 100 µM; in the series on M-HeLa [2], 18 µM; with MCF7 it was 31 µM.
For `CC(=O)N[C@H]1[C@H](OC(=O)CCCCCCCCCOC(=O)[C@]2(C)CCC[C@@]3(C)[C@@H]4CC[C@@]5(C)C[C@]4(CC[C@@H]32)CC5=O)O[C@H](COC(C)=O)[C@@H](OC(C)=O)[C@@H]1OC(C)=O`, the IC50 in series [1] was over 100 µM; in the series with M-HeLa [2], over 100 µM; in the series with MCF7 it was 64.9 µM.
As to `CC/C(=C(\c1ccccc1)c1ccc(OCCN(C)C)cc1)c1ccccc1` [TAMOXIFEN], in [1], the IC50 is 46 µM.
For the compound `C[C@@]12CC[C@@H]3[C@@](CC[C@H]4[C@@]3(C)CCC[C@@]4(C)C(=O)O[C@@H]3O[C@H](CO)[C@@H](O)[C@H](O)[C@H]3O)(CC1=O)C2`, the IC50 in series [1] was over 100 µM; in the series on M-HeLa [2], 32 µM; in the series on MCF7, over 100 µM.
